Results taken from publication PMC10102849 (Clinical cancer research : an official journal of the …, 2023).

Experiments:
JH-2-002 cells = format: cell-based, human; settings: 72 hours
JW23.3 cells = format: cell-based, murine; settings: 72 hours
[1] = test system: JW23.3, JH-2-002, and MPNST-724 cells; test: IncuCyte proliferation assay, range stated over three MPNST cell lines; format: cell-based; settings: 72 h, read-out: IC50 for inhibition of cell confluence, range over cell lines
MPNST-724 cells = format: cell-based, human; settings: 3 days

Row | Structure (SMILES) | effect on percent cell confluence / proliferation (JH-2-002 cells) | effect on percent cell confluence / proliferation (JW23.3 cells) | IC50 [1] [nM] | effect on proliferation (MPNST-724 cells)
1 | O=C(NOC[C@H](O)CO)c1ccc(F)c(F)c1Nc1ccc(I)cc1F [mirdametinib] | dose-dependently reduced | dose-dependently reduced | 220 to 1220 | dose-dependently reduced
2 | CCS(=O)(=O)N1CC(CC#N)(n2cc(-c3ncnc4[nH]ccc34)cn2)C1 [baricitinib] | decreased cell proliferation at higher doses | decreased cell proliferation at higher doses | – | –
